Source: ChEMBL document CHEMBL1154499 (Bioorg Med Chem Lett, 2008)
One block for each molecule: values may come before it.

Experiments:
[1] = biological target: T1, Transcriptional activator protein TraR (Agrobacterium tumefaciens, UniProt P33905); test: Antagonist activity at Agrobacterium tumefaciens WCF47 TraR receptor assessed as inhibition of OOHL-induced response by beta-galctosidase reporter gene assay
T1 sequence (P33905 whole entry): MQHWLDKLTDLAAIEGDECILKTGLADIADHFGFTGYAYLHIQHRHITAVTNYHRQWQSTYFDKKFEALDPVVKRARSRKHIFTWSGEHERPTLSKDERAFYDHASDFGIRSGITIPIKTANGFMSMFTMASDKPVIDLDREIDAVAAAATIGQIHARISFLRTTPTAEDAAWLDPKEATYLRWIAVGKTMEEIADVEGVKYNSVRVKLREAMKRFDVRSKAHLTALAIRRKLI

[2] = (§1) Antagonist activity at Escherichia coli DH5alpha LasR receptor assessed as inhibition of OdDHL-induced response by beta-galctosidase reporter gene assay; type: functional
[3] = Agonist activity at Escherichia coli DH5alpha LasR receptor by beta-galctosidase reporter gene assay; type: functional
[4] = biological target: T2, Transcriptional activator protein LuxR (Vibrio fischeri (strain ATCC 700601 / ES114), UniProt P35327); test: (§2) Antagonist activity at Vibrio fischeri ES114 LuxR receptor assessed as inhibition of OHHL-induced response by luciferase reporter gene assay; type: functional, Aliivibrio fischeri
T2 sequence (P35327 whole entry): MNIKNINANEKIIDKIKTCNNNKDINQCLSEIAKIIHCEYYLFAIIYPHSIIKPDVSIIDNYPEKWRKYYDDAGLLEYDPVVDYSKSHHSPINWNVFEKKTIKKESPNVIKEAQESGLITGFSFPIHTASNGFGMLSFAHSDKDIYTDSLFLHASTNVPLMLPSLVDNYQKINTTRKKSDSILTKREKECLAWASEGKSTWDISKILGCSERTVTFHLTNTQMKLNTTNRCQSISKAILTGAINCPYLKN

[5] = biological target: T3, Transcriptional activator protein LuxR (Vibrio fischeri (strain ATCC 700601 / ES114)) (UniProt P35327); test: as §2; type: functional; conditions: Aliivibrio fischeri, concentration not given here
T3 sequence (whole entry): T2 sequence (P35327 whole entry)

[6] = system: Escherichia coli; test: Agonist activity at Escherichia coli DH5alpha LasR receptor at 100 uM by beta-galctosidase reporter gene assay relative to OdDHL; type: functional
[7] = system: Escherichia coli; test: as §1; type: functional; conditions: dose or concentration not given here
[8] = biological target: T3, Transcriptional activator protein LuxR (Vibrio fischeri (strain ATCC 700601 / ES114)); test: Agonist activity at Vibrio fischeri ES114 LuxR receptor at 100 uM by luciferase reporter gene assay relative to OHHL; type: functional; conditions: Aliivibrio fischeri

SMILES: O=C(COc1ccc(Cl)cc1)N[C@H]1CCOC1=O
IC50 [1]: 0.62 µM
IC50 [2]: 4.7 µM

SMILES: O=C(Cc1ccc(Cl)c(Cl)c1)N[C@H]1CCOC1=O
IC50 [1]: 2.4 µM

EC50 [3]: > 10 µM
SMILES: CCCC(=O)CC(=O)N[C@H]1CCOC1=O

SMILES: COc1cccc(CC(=O)N[C@H]2CCOC2=O)c1
IC50 [4]: 2.5 µM
inhibition [5]: 85%

SMILES: O=C(COc1ccc(OC(F)(F)F)cc1)N[C@H]1CCOC1=O
EC50 [3]: 6.3 µM
Activity [6]: 30%

SMILES: O=C(Cc1ccc(F)c(C(F)(F)F)c1)N[C@H]1CCOC1=O
IC50 [4]: 1 µM

SMILES: O=C(CCc1cccc(C(F)(F)F)c1)N[C@H]1CCOC1=O
IC50 [4]: 0.5 µM

SMILES: O=C(COc1ccc(F)cc1)N[C@H]1CCOC1=O
IC50 [1]: 2.7 µM

SMILES: O=C(Cc1cccc2ccccc12)N[C@H]1CCOC1=O
IC50 [4]: 1.3 µM

SMILES: O=C(CCc1ccc(Cl)cc1)N[C@H]1CCOC1=O
IC50 [1]: 3.3 µM
IC50 [2]: 2.2 µM
IC50 [4]: 0.97 µM

SMILES: O=C(Cc1ccc(SC(F)(F)F)cc1)N[C@H]1CCOC1=O
IC50 [1]: 4.7 µM
Activity [6]: 65%
IC50 [4]: 1.3 µM

SMILES: Cc1cccc(CC(=O)N[C@H]2CCOC2=O)c1
IC50 [4]: 2 µM
inhibition [5]: 91%

SMILES: Cc1ccc(CCC(=O)N[C@H]2CCOC2=O)cc1
IC50 [2]: 4.3 µM
IC50 [4]: 2.2 µM

SMILES: O=C(CCc1ccc(C(F)(F)F)cc1)N[C@H]1CCOC1=O
IC50 [1]: 0.21 µM
EC50 [3]: > 10 µM
IC50 [4]: 2.2 µM

SMILES: Cc1cccc(CCC(=O)N[C@H]2CCOC2=O)c1
IC50 [2]: 8.9 µM
IC50 [4]: 2.1 µM

SMILES: O=C(CCc1cccc([N+](=O)[O-])c1)N[C@H]1CCOC1=O
IC50 [2]: 3.4 µM
IC50 [4]: 0.88 µM

SMILES: CSc1ccc(CCC(=O)N[C@H]2CCOC2=O)cc1
IC50 [1]: 1.1 µM
IC50 [4]: 1.7 µM

SMILES: O=C(Cc1ccc([N+](=O)[O-])cc1)N[C@H]1CCOC1=O
IC50 [1]: 2.25 µM
IC50 [4]: 0.96 µM

SMILES: O=C(Cc1cccc(C(F)(F)F)c1)N[C@H]1CCOC1=O
IC50 [4]: 1.4 µM

SMILES: O=C(COc1ccc(I)cc1)N[C@H]1CCOC1=O
IC50 [1]: 0.44 µM
IC50 [2]: 2 µM
inhibition [7]: 63%
IC50 [4]: 1.9 µM

SMILES: CSc1cccc(CC(=O)N[C@H]2CCOC2=O)c1
IC50 [4]: 1.5 µM

SMILES: O=C(CCc1cccc(I)c1)N[C@H]1CCOC1=O
IC50 [2]: 1.8 µM
IC50 [4]: 0.39 µM

SMILES: O=C(Cc1cc(C(F)(F)F)cc(C(F)(F)F)c1)N[C@H]1CCOC1=O
EC50 [3]: 6.3 µM
Activity [8]: 70%

SMILES: O=C(CCc1ccc(I)cc1)N[C@H]1CCOC1=O
IC50 [1]: 2.1 µM
IC50 [4]: 0.63 µM

SMILES: O=C(Cc1cccc([N+](=O)[O-])c1)N[C@H]1CCOC1=O
IC50 [2]: 0.61 µM

SMILES: COc1ccc(OCC(=O)N[C@H]2CCOC2=O)cc1
IC50 [1]: 4.3 µM

SMILES: O=C(COc1ccc(C(F)(F)F)cc1)N[C@H]1CCOC1=O
IC50 [1]: 1.6 µM

SMILES: O=C(Cc1ccc(I)cc1)N[C@H]1CCOC1=O
IC50 [1]: 1.25 µM
IC50 [2]: 1.72 µM

SMILES: O=C(CCc1cccc(Br)c1)N[C@H]1CCOC1=O
IC50 [2]: 3.3 µM
IC50 [4]: 0.53 µM

SMILES: CSc1ccc(CC(=O)N[C@H]2CCOC2=O)cc1
IC50 [1]: 8.4 µM
IC50 [4]: 2.1 µM

SMILES: O=C(CCc1ccc(F)cc1)N[C@H]1CCOC1=O
IC50 [2]: 12 µM
IC50 [4]: 2.7 µM

SMILES: O=C(CCc1ccc(Br)cc1)N[C@H]1CCOC1=O
IC50 [2]: 0.34 µM

EC50 [3]: 0.01 µM
SMILES: CCCCCCCCCC(=O)CC(=O)N[C@H]1CCOC1=O

SMILES: Cc1cccc(OCC(=O)N[C@H]2CCOC2=O)c1
IC50 [1]: 1.1 µM
IC50 [2]: 7.8 µM

SMILES: O=C(COc1ccc([N+](=O)[O-])cc1)N[C@H]1CCOC1=O
IC50 [1]: 0.29 µM

SMILES: O=C(COc1ccc(Br)cc1)N[C@H]1CCOC1=O
IC50 [1]: 0.51 µM
IC50 [2]: 2.1 µM
inhibition [7]: 67%
IC50 [4]: 3 µM

SMILES: O=C(CCc1ccc2c(c1)OCO2)N[C@H]1CCOC1=O
IC50 [2]: 3.4 µM

SMILES: COc1ccc(CCC(=O)N[C@H]2CCOC2=O)cc1
IC50 [2]: 6.8 µM

SMILES: O=C(CCc1ccc([N+](=O)[O-])cc1)N[C@H]1CCOC1=O
IC50 [1]: 1.6 µM
IC50 [2]: 3 µM
inhibition [7]: 67%
IC50 [4]: 0.99 µM

EC50 [3]: > 10 µM
SMILES: CCCCCC(=O)CC(=O)N[C@H]1CCOC1=O

SMILES: N#Cc1cccc(CC(=O)N[C@H]2CCOC2=O)c1
Activity [8]: 75%

SMILES: O=C(Cc1ccc2ccccc2c1)N[C@H]1CCOC1=O
IC50 [1]: 4.2 µM
IC50 [4]: 0.94 µM

SMILES: O=C(COc1cccc([N+](=O)[O-])c1)N[C@H]1CCOC1=O
IC50 [4]: 2.4 µM

SMILES: O=C(Cc1cccc(I)c1)N[C@H]1CCOC1=O
IC50 [2]: 4.63 µM

SMILES: Cc1ccc(OCC(=O)N[C@H]2CCOC2=O)cc1
IC50 [1]: 1.8 µM
